Read-outs that look alike come from different tables or passages of the source.
Legend:
PLA2G16 = biological target: T1, PLA2G16 (Homo sapiens, UniProt P53816); experiment: Enzyme activity assay for PLA2G16 (Red/Green BODIPY PC-A2 fluorescence); assay type: biochemical; details: His-tagged PLA2G16, 4 min pre-incubation, 2 nM to 50 μM; read-out: IC50 values of the compounds determined in the enzyme activity assay for PLA2G16
T1 construct: Hexa-His (N); made in house; host or cells: E. coli BL21(DE3)
T1 sequence (P53816 1-162): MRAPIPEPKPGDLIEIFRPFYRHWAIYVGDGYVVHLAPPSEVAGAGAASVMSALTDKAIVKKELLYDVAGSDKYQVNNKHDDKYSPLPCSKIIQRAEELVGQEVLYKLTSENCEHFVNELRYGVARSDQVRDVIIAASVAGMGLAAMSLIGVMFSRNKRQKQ
Method in brief: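 N-His-tagged human PLA2G16 from E. coli, Ni-NTA purified. Pre-incubated 4 min with compound (2 nM–50 μM final) in pH 8.5 Tris/NaCl buffer with 5 mM glutathione, then BODIPY PC-A2 in DOPC/DOPG/cholesterol vesicles added. Fluorescence (ex 480/em 530 nm) increase over 10 min taken as activity; IC50 by non-linear regression.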

[1] = tested on: picornaviruses (CVB1, HRV-A2, HRV-A23, EV-68); experiment: Anti-picornavirus cytopathic effect (CPE) reduction assay on HeLa H1 cells; assay type: cell-based; details: HeLa H1 cells, 48 h, category from averaging the EC50 values from four picornaviruses (CVB1, HRV-A2, HRV-A23, EV68), read-out: EC50 values of the compounds determined in the anti-picornavirus assay
Method in brief: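 HeLa H1 cells pre-treated 2 h with serially diluted compound in DMEM/2% FBS, then infected at an MOI giving full CPE in 2 days. After 48 h at 37° C, viability read by CellTiterBlue fluorescence (ex 560/em 590 nm), normalised to infected and uninfected vehicle controls; EC50 by non-linear regression, category from mean of four viruses.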

Structure (SMILES)	IC50 (PLA2G16)	EC50 ([1]; Enterovirus B, HeLa H1, 48 h)	EC50 [1]	EC50 ([1]; Enterovirus B, CVB1|EV68|HRVA2|HRVA23, HeLa H1, 48 h)
CC(NC(=O)c1ccccc1Cl)C(=O)C(=O)NCC1CC1 (centres unmarked) [FP 169, 3-[(2-Chlorophenyl)formamido]-(cyclopropylmethyl)-2-oxobutanamide]	< 1 µM	1 to 10 µM	–	–
CC(NC(=O)C1CCC(F)(F)CC1)C(=O)C(=O)NCC1CC1 (centres unmarked) [FP 173, N-(Cyclopropylmethyl)-3-[(4,4-difluorocyclohexyl)formamido]-2-oxobutanamide]	1 to 10 µM	> 10 µM	–	–
CC1(NC(=O)C(=O)C2CCC(=O)N2Cc2ccccc2)CC1 (centres unmarked) [FP 246, 2-(1-Benzyl-5-oxopyrrolidin-2-yl)-N-(1-methylcyclopropyl)-2-oxoacetamide]	< 1 µM	1 to 10 µM	–	–
O=C(NC1CC2(COC2)C1)C(=O)[C@H]1CCC(=O)N1Cc1ccccc1 [FP 297, 2-[(2R)-1-Benzyl-5-oxopyrrolidin-2-yl]-N-{2-oxaspiro[3.3]heptan-6-yl}-2-oxoacetamide]	< 1 µM	1 to 10 µM	–	–
CC(C)CNC(=O)C(=O)C(C)N(C=O)CC(F)(F)F (centres unmarked) [FP 46, N-(2-Methylpropyl)-2-oxo-3-[N-(2,2,2-trifluoroethyl)formamido]butanamide]	< 1 µM	1 to 10 µM	–	–
CCC(C(=O)C(=O)NCC1CCCCC1)N(C=O)CC1CN(C(=O)OC(C)(C)C)C1 (centres unmarked) [FP 61, tert-Butyl 3-[(NM{1-[(cyclohexylmethyl)carbamoyl]-1-oxobutan-2-yl}formamido)methyl]-azetidine-1-carboxylate]	< 1 µM	1 to 10 µM	–	–
CC(C(=O)C(=O)NCC(F)F)N(C=O)C1CCCCC1 (centres unmarked) [FP 111, 3-(N-Cyclohexylformamido)-N-(2,2-difluoroethyl)-2-oxobutanamide]	< 1 µM	> 10 µM	–	–
CC(=O)N1CCC(CN(C=O)C(C)C(=O)C(=O)NCC2CCCCC2)CC1 (centres unmarked) [FP 79, 3-{N-[(1-Acetylpiperidin-4-yl)methyl]formamido}-N-(cyclohexylmethyl)-2-oxobutanamide]	1 to 10 µM	> 10 µM	–	–
O=C(NC1CN(S(=O)(=O)C2CCCC2)C1)C(=O)[C@H]1CCC(=O)N1Cc1ccccc1 [FP 322, 2-[(2R)-1-Benzyl-5-oxopyrrolidin-2-yl]-N-[1-(cyclopentanesulfonyl)azetidin-3-yl]-2-oxoacetamide]	< 1 µM	< 1 µM	–	–
CC(OCC1CCOCC1)C(=O)C(=O)NCC1CCCC1 (centres unmarked) [FP 132, N-(Cyclopentylmethyl)-3-[(oxan-4-yl)methoxy]-2-oxobutanamide]	< 1 µM	< 1 µM	–	–
O=C(NCCC1CC1)C(=O)C1CCC(=O)N1Cc1ccccc1 (centres unmarked) [FP 307, 2-(1-Benzyl-5-oxopyrrolidin-2-yl)-N-(2-cyclopropylethyl)-2-oxoacetamide]	< 1 µM	< 1 µM	–	–
CC(C(=O)C(=O)NC1CC1)N(C=O)C1CCCCC1 (centres unmarked) [FP 42, 3-(N-Cyclohexylformamido)-N-cyclopropyl-2-oxobutanamide]	< 1 µM	1 to 10 µM	–	–
CC(C)CC(C(=O)C(N)=O)N(C=O)Cc1ccccc1 (centres unmarked) [FP 199, 3-(N-Benzylformamido)-5-methyl-2-oxohexanamide]	< 1 µM	> 10 µM	–	–
COc1ccccc1N(C=O)C(C)C(=O)C(=O)NCc1ccccc1C (centres unmarked) [FP 98, 3-[N-(2-Methoxyphenyl)formamido]-N-[(2-methylphenyl)methyl]-2-oxobutanamide]	< 1 µM	1 to 10 µM	–	–
CC(NC(=O)c1ccc(Cl)cc1)C(=O)C(=O)NCC1CC1 (centres unmarked) [FP 170, 3-[(4-Chlorophenyl)formamido]-N-(cyclopropylmethyl)-2-oxobutanamide]	< 1 µM	1 to 10 µM	–	–
C[C@@H]1CC(=O)N(Cc2ccccc2)[C@@H]1C(=O)C(=O)NC1CC1 (single isomer, unassigned) [FP 338]	< 1 µM	–	1 to 10 µM	–
CC(C)N(C=O)C(C)C(=O)C(=O)NCC1CCCCC1 (centres unmarked) [FP 48, N-(Cyclohexylmethyl)-2-oxo-3-[N-(propan-2-yl)formamido]butanamide]	< 1 µM	1 to 10 µM	–	–
Cc1ccc(S(=O)(=O)NC(C)C(=O)C(=O)NCC2CC2)cc1 (centres unmarked) [FP 189, N-(Cyclopropylmethyl)-3-(4-methylbenzenesulfonamido)-2-oxobutanamide]	< 1 µM	1 to 10 µM	–	–
CC(C(=O)C(=O)NCc1cccc(Cl)c1)N(C=O)C1CCOCC1 (centres unmarked) [FP 22, N-[(3-Chlorophenyl)methyl]-3-[N-(oxan-4-yl)formamido]-2-oxobutanamide]	< 1 µM	1 to 10 µM	–	–

Structure (SMILES)	IC50 (PLA2G16)	EC50 ([1]; Enterovirus B, HeLa H1, 48 h)	EC50 [1]	EC50 ([1]; Enterovirus B, CVB1|EV68|HRVA2|HRVA23, HeLa H1, 48 h)
O=C(NCC1CCCCC1)C(=O)C1CCC(=O)N1CCC1CCOCC1 (centres unmarked) [FP 245, N-(Cyclohexylmethyl)-2-{1-[2-(oxan-4-yl)ethyl]-5-oxopyrrolidin-2-yl}-2-oxoacetamide]	< 1 µM	1 to 10 µM	–	–
COCC(=O)N(c1ccccc1OC)C(C)C(=O)C(=O)NCc1cccc(Cl)c1 (centres unmarked) [FP 175, N-[(3-Chlorophenyl)methyl]-3-[2-methoxy-N-(2-methoxyphenyl)acetamido]-2-oxobutanamide]	< 1 µM	1 to 10 µM	–	–
CC(C(=O)C(=O)NCC(F)(F)F)N(C=O)C1CCCCC1 (centres unmarked) [FP 110, 3-(N-Cyclohexylformamido)-2-oxo-N-(2,2,2-trifluoroethyl)butanamide]	< 1 µM	1 to 10 µM	–	–
CC(C)NC(=O)C(=O)[C@H]1CCC(=O)N1Cc1ccccc1 [FP 238, 2-[(2R)-1-Benzyl-5-oxopyrrolidin-2-yl]-2-oxo-N-(propan-2-yl)acetamide]	< 1 µM	< 1 µM	–	–
CC(NS(=O)(=O)Cc1ccccc1)C(=O)C(=O)NCC1CC1 (centres unmarked) [FP 188, N-(Cyclopropylmethyl)-2-oxo-3-(phenylmethanesulfonamido)butanamide]	< 1 µM	> 10 µM	–	–
C[C@@H]1CC(=O)N(Cc2ccccc2)[C@H]1C(=O)C(=O)NCC1CC1 (single isomer, unassigned) [FP 336]	< 1 µM	< 1 µM	–	–
CC(C(=O)C(=O)NCC1CC1)N(Cc1ccccc1)S(C)(=O)=O (centres unmarked) [FP 222, 3-(N-Benzylmethanesulfonamido)-N-(cyclopropylmethyl)-2-oxobutanamide]	< 1 µM	> 10 µM	–	–
C[C@H]1CC(=O)N(Cc2ccccc2)[C@H]1C(=O)C(=O)NCC1CC1 (single isomer, unassigned) [FP 337]	< 1 µM	< 1 µM	–	–
O=C(NC1CCN(C(=O)NC2CCC2)CC1)C(=O)[C@H]1CCC(=O)N1Cc1ccccc1 [FP 324, 4-{2-[(2R)-1-Benzyl-5-oxopyrrolidin-2-yl]-2-oxoacetamido}-N-cyclobutylpiperidine-1-carboxamide]	< 1 µM	< 1 µM	–	–
CC(C(=O)C(=O)NCC1CC1)N(C=O)CC(C)(C)C (centres unmarked) [FP 41, N-(Cyclopropylmethyl)-3-[N-(2,2-dimethylpropyl)formamido]-2-oxobutanamide]	< 1 µM	1 to 10 µM	–	–
O=CN(Cc1ccccc1)[C@@H](Cc1cn(C(c2ccccc2)(c2ccccc2)c2ccccc2)cn1)C(=O)C(=O)NCC1CCCCC1 [FP 116, (3S)-3-(N-Benzylformamido)-N-(cyclohexylmethyl)-2-oxo-4-[1-(triphenylmethyl)-1H-imidazol-4-yl]butanamide]	< 1 µM	< 1 µM	–	–
CC(NS(=O)(=O)c1ccccc1)C(=O)C(=O)NCC1CC1 (centres unmarked) [FP 187, 3-Benzenesulfonamido-N-(cyclopropylmethyl)-2-oxobutanamide]	< 1 µM	1 to 10 µM	–	–
Cc1csc(CN2C(=O)CCC2C(=O)C(=O)NCC2CC2)n1 (centres unmarked)	< 1 µM	–	–	1 to 10 µM
COc1ccccc1N(C=O)C(C)C(=O)C(=O)NC(C)(C)c1cccc(Cl)c1 (centres unmarked) [FP 11, N-[2-(3-Chlorophenyl)propan-2-yl]-3-[N-(2-methoxyphenyl)formamido]-2-oxobutanamide]	< 1 µM	< 1 µM	–	–
CCC(NC(=O)CN1CCCCC1)C(=O)C(=O)NCC1CCCCC1 (centres unmarked) [FP 213, N-(Cyclohexylmethyl)-2-oxo-3-[2-(piperidin-1-yl)acetamido]pentanamide]	< 1 µM	1 to 10 µM	–	–
CC(C)(O)CNC(=O)C(=O)C1CCC(=O)N1Cc1ccc(Cl)cc1 (centres unmarked) [FP 274, 2-{1-[(4-Chlorophenyl)methyl]-5-oxopyrrolidin-2-yl}-N-(2-hydroxy-2-methylpropyl)-2-oxoacetamide]	< 1 µM	1 to 10 µM	–	–
CC(NC(=O)c1ccccc1F)C(=O)C(=O)NCC1CC1 (centres unmarked) [FP 164, N-(Cyclopropylmethyl)-3-[(2-fluorophenyl)formamido]-2-oxobutanamide]	< 1 µM	1 to 10 µM	–	–
CNC(=O)C(=O)C(C(C)C)N(C=O)Cc1ccccc1 (centres unmarked) [FP 197, 3-(N-Benzylformamido)-N,4-dimethyl-2-oxopentanamide]	< 1 µM	> 10 µM	–	–

Source: patent US11091428B2 (HAPLOGEN GMBH, priority 2016, dated 2021)
